We go through 17 compounds from patent EP4471028A1, “HYDRAZINO GROUP-CONTAINING COMPOUND” (priority 2022, dated 2023).

Data set [1] can be described thus: In vitro liver microsomal metabolic stability. It counts as in vitro ADME. The following applies: human, liver microsomes, pH 7.4; 0.5 mg/mL microsomes, NADPH, 37 °C, 60 min; read-out: Human liver microsome Residual rate at 60 min%. The method, then:
Liver microsome incubation samples were prepared by mixing a PBS buffer (pH 7.4), a liver microsome solution (0.5 mg/mL; species: human, monkey, dog, rat, and mouse), a test compound, and an NADPH + MgCl2 solution and incubated at 37 °C and 300 rpm for 1 h. Zero-hour samples were prepared by mixing a PBS buffer (pH 7.4), a liver microsome solution (0.5 mg/mL), and a test compound. An acetonitrile solution containing an internal standard was added to the samples, and supernatants were prepared by protein precipitation, diluted, and then assayed by LC/MS/MS.
In general terms: Liver microsomes are vesicles of endoplasmic reticulum, rich in cytochrome P450 enzymes.

Data set [2] can be described thus: In vivo pharmacokinetics (Table 4). Particulars: plasma; for bioavailability: po, IG 10mg/kg versus IV 1mg/kg, read-out: Absolute F; for clearance: IV, 1mg/kg, read-out: CLz (converted).

Consider `Nn1c(=O)n(C2CC2)c2c3cc(-c4ccc(OCCCN5CCCC5)nc4)c(F)cc3ncc21` [Example 19], for which the remaining at 1 h in data set [1] came out at 77%. In data set [2], the bioavailability was found to be 88.3% and the clearance is 35.2 mL/min/kg.
With `COC1CCC(n2c(=O)n(N)c3cnc4cc(F)c(-c5ccc(OCCCN6CCCC6)nc5)cc4c32)C1` (centres unmarked) [Example 13], in data set [1], the remaining at 1 h is 56%.
The same measure, in the same setting: then `CC(C)n1c(=O)n(N)c2cnc3cc(F)c(-c4ccc(OCC5CC(N6CCCC6)C5)nc4)cc3c21` (centres unmarked) [Example 22], with 73.3%.
Regarding `CC(C)n1c(=O)n(N)c2cnc3cc(F)c(-c4ccc(OCCCN5CC(CF)C5)nc4)cc3c21` [Example 28], the remaining at 1 h in data set [1] worked out at 65.6%. Besides, in data set [2], the bioavailability worked out at 77.4% and the clearance was 7.45 mL/min/kg.
As to `CC(C)n1c(=O)n(N)c2nnc3cc(F)c(-c4ccc(OCCCN5CCCCC5)nc4)cc3c21` [Example 32], in data set [1], the remaining at 1 h stood at 95.8%.
The same measure, in the same setting: then `COc1cc2ncc3c(c2cc1-c1ccc(OCCCN2CCCCC2)nc1)n(C(C)C)c(=O)n3N` [Example 16], with 72.4%.
As to `Nn1c(=O)n(C2CCOCC2)c2c3cc(-c4ccc(OCCCN5CCCCC5)nc4)c(F)cc3ncc21` [Example 15], the remaining at 1 h in data set [1] amounted to 58.4%.
On the same count and under the same terms, then `COc1cc2ncc3c(c2cc1-c1ccc(OCCCN2CCCC2)nc1)n(C(C)C)c(=O)n3N` [Example 17], with 85.2%; and `COC1CCC(n2c(=O)n(N)c3cnc4cc(F)c(-c5ccc(OCCCN(C)C)nc5)cc4c32)C1` (centres unmarked) [Example 14], with 66.2%.
As for `Nn1c(=O)n(C2CC2)c2c3cc(-c4ccc(OCCCN5CCCCC5)nc4)c(F)cc3ncc21` [Example 18], in data set [2], the bioavailability is 75.9% and the clearance was 26.7 mL/min/kg.
Consider `COc1cc2ncc3c(c2cc1-c1ccc(OCCCN2CCCC2)nc1)n(C1CC1)c(=O)n3N` [Example 11], for which, in data set [1], the remaining at 1 h is 58.6%.
For the compound `CC(C)n1c(=O)n(N)c2cnc3cc(F)c(-c4ccc(OCCCN5CC6(CCC6)C5)nc4)cc3c21` [Example 29], the remaining at 1 h in data set [1] worked out at 64.9%. Further, in data set [2], the bioavailability is 85.9% and the clearance was 5.27 mL/min/kg.
Regarding `Nn1c(=O)n(C2CCOCC2)c2c3cc(-c4ccc(OCCCN5CCCC5)nc4)c(F)cc3ncc21` [Example 5], in data set [1], the remaining at 1 h was 90.6%.
In the case of `CC(C)n1c(=O)n(N)c2cnc3cc(F)c(-c4ccc(OCCCN5C6CCC5CC6)nc4)cc3c21` [Example 27], in data set [2], the bioavailability was determined as 115% and the clearance was 59.7 mL/min/kg.
On to `CC(C)n1c(=O)n(N)c2cnc3cc(F)c(-c4ccc(OCCCN5CCCCC5)nc4)cc3c21` [Example 2], for which the remaining at 1 h in data set [1] worked out at 64.4%. Also, in data set [2], the bioavailability worked out at 79.7% and the clearance was 31 mL/min/kg.
With `COC1CC(n2c(=O)n(N)c3cnc4cc(F)c(-c5ccc(OCCCN(C)C)nc5)cc4c32)C1` (centres unmarked) [Example 21], the remaining at 1 h in data set [1] was found to be 79.6%.
For the compound `CC(C)n1c(=O)n(N)c2cnc3cc(F)c(-c4ccc(OCCCN5CCCC5)nc4)cc3c21` [Example 3], in data set [1], the remaining at 1 h came out at 86.3%. In data set [2], the bioavailability was 95.5% and the clearance was 36.3 mL/min/kg.
